{"source": "patent US6566140B2", "about": "“Inhibition of coagulation in blood and blood products” (University of Vermont and State Agriculture College, priority 1998, dated 2003)", "key": {"[1]": {"system": "factor XI deficient plasma", "assay": "tissue factor dependence of clotting in factor XI-deficient plasma", "type": "biochemical, human", "conditions": "CTI, factor XI 1 U/mL", "description": "FIG. 3 is explained as follows: clot time in factor XI deficient plasma (<1%) was measured as a function of tissue factor and […] (as described in Methods). The ordinate is shown in seconds (left-hand axis) and minutes (right-hand axis). Two curves are presented: one for factor XI deficient plasma without factor XI replacement (<1%, filled squares) and a second curve for the same plasma with 1 U/mL factor XI (25 nM, filled circles). To connect the data, smooth curves were drawn which meet near 24 pM TF. The curves become increasingly divergent as tissue factor concentration is reduced to 6 pM TF, where the difference is most pronounced.\nRelipidated tissue factor reagent (see above) was rehydrated (200 μl) and diluted with HBS/calcium (2 mM) to obtain a stock reagent containing 552 pM TF and 1.10 μM PCPS. This initial stock was further diluted with PCPS (1. 10 μM) in HBS/calcium (2 mM) to obtain a set of working TF stock concentrations ranging from 17.25 to 552 pM TF at constant lipid concentration. The assay was performed according to the following protocol: Into a polystyrene tube (12×75 mm) was added 200 μL human plasma (XI-deficient, <1% XI:C; or XI-deficient with factor XI replaced at 3.5 μg/mL, 100 U/dL) and 10 μL corn trypsin inhibitor (1.15 mg/mL in HBS). […]"}, "hemophilia C blood": {"system": "hemophilia C blood", "assay": "coagulation in hemophilia C (factor XI deficient) whole blood with factor XI replacement", "type": "cell-based, human", "conditions": "for clot time: CTI 48 μg/mL", "source_text": "Table 1 below reports the clot times for coagulation in factor XI-deficient blood, deficient blood with replacement and normal whole blood initiated at 25 and 5 pM TF with suppression of contact activation by corn trypsin inhibitor. […] Data are given for each of the experiments described in the text, along with phlebotomy control values i(in parentheses) for clotting in the absence of added tissue factor initiator. […] In all experiments, including controls, factor XIIa activity was suppressed by the addition of corn trypsin inhibitor at the level of 48 μg/mL of blood (see Methods for brief description of the experiments). For the experiments with 25 pM initiator, patient A was the donor; in the 5 pM experiments, the donor was patient B.\nThe protocol employed is a modification of Rand, M. D., et al. supra performed under the supervision of one of the authors (R. F. B.) at the Clinical Research Center, Fletcher Allen Health Care (Burlington, Vt.). Clotting in freshly drawn, non-anticoagulated whole blood was carried out in 32 capped polystyrene culture tubes as described, except that two series were performed per experiment (16 tubes/series). Reagents were loaded in the following amounts: corn trypsin inhibitor (all tubes, to give 50 μg/mL blood); relipidated TF (lipid:protein=2000) in HBS with 5 mM calcium (all tubes in each series except phlebotomy control tube, to give 25 or 5 pM TF/mL blood); factor VIII or factor XI (all tubes, replacement series only, to give 1 U/mL final); equivalent volume factor VIII/XI dilution buffer (HBS, pH 7.4, all tubes, deficiency series only). No more than 45 μL reagent were loaded in each tube. The zero tube of each series was pre-treated using 1 mL inhibitor cocktail (containing 50 mM EDTA and 20 mM benzamidine-HCl in HBS, pH 7.4), and 10 μL of 10 mM FPRck (diluted in 0.01 M HCl).\nPatient or normal donor blood was drawn by venipuncture under a protocol approved by the Human Studies Committee at the University of Vermont, as described Rand, M. D., et al. supra. Clotting was initiated by delivery into the reagent-loaded tubes, and with periodic quenching of the tubes with inhibitor cocktail and FPRck as described above. Two series of quenched samples were obtained following reaction progress up to 20 minutes after initiation; both reducing (1% β-mercaptoethanol) and non-reducing SDS-PAGE samples were prepared from each tube (60 μL supernatant, 190 μL 2% SDS-PAGE sample solution Rand, M. D., et al. supra heated exactly 5 minutes at 98+/−2° C.). An aliquot from each tube was filtered to remove cellular contaminants for ostleonectin assays (200 μL, 0.2 μm AcroDisc, Gelman Sciences, Ann Arbor, Mich.). The remaining serum and cell pellets/clots were aliquotted to screw cap tubes, frozen and stored at −20° C. for immunoblot or immunoassay analysis.\nCommercial ELISAs for fibrinopeptide A (FPA), thrombin-antithrombin-III (TAT) and platelet α-granule release (osteonectin) were performed according to manufacturers protocols, with corrections for sample dilution by added quench solution (1.00 mL) and hematocrit (typically 40% of the total blood volume). For analysis of factor Va, samples were separated on SDS-PAGE according to Laemmli, U.K. (1970) Nature 227: 680 as modified by our laboratory Rand, M. D., et al. (1996) supra. Separate gels were run for heavy chain and light chain analysis. Gels were loaded with a pre-stained molecular weight standard mixture (14-200 kDa) and dilute standards (3 samples) allowing comparison and quantitation of analyte amounts horizontally on the immunoblots. Transfer from the gel to nitrocellulose (BioRad, Hercules, Calif.) was performed for 1.5-3 hours via an SDS-free tank transfer procedure as described (Towbin H, et al. (1979) Proc Natl Acad Sci. (USA) 76: 4350 and Gallagher, S. et al. (1993) Current Protocols in Molecular Biology. J. Wiley and Sons. 10.8.1.) with subsequent immunoblot analysis according to Rand, M. D., et al.(1996) supra. […]"}, "[2]": {"system": "tissue factor initiated clotting of recalcified citrated plasma", "assay": "extended plasma prothrombin time (XpPT) assay", "type": "biochemical, human", "conditions": "for clot time of patient plasma: patients on Coumadin therapy, 0.5 nM TF, 100 μg/ml CTI; for XpPT clot time of patient plasma (s.e.m.): patients on moderate Coumadin therapy, 0.5 nM tissue factor", "description": "The result was a standard system of coagulation evaluation in which a plasma sample collected in 11 mM trisodium citrate was frozen (standard pathology laboratory collection system) defrosted in the presence of 100 μgm/ml corn trypsin inhibitor (final concentration) and the assay ultimately conducted described in Materials and Methods section below. The final concentrations in the tissue factor clotting sample included 100 μgm/ml CTI 30 mM CaCl2, 50 μM 75% PC:25PS vesicles and 0.5 nM tissue factor. This system is referred to as the XpPT assay.\nTo study the effects of heparin, 0-3 U/mL (10,000 u/mL stock) were titrated into normal, CTI (100 μg/mL), citrated plasma. Into reaction cuvettes, […] of plasma, 10 μL of 300 mM CaCl2 (final, 30 mM) and […] of 3.72 mM PCPS (final concentration, 50 μM) were added. Appropriate volumes of heparin (10,000 U/mL) were added to give 0.25, 0.5, 1.0, 1.5, 2.0, and 3.0 U/mL final concentration in 100 μL plasma. The reaction was initiated by adding 10 μL of 5 nM rTF (0.5 nM final concentration).\nThe assay was used along lines discussed previously except that TFPI was added (50 μg/mL stock) at 5.0, 10.0, 20.0, 60 nM final concentration and initiating with 10 μL of 5.0 nM rTF (0.5 nM).\nCitrated platelet poor plasma (PPP) from a normal pool, patient cohorts, or factor V, VII, VIII and IX deficient pools was treated with 3.7 μL of 2.72 mg/mL (100 μg/mL final concentration) corn trypsin inhibitor (CTI) prior to thawing at 37° C. The thawed plasma was spun at 16,000×g (Eppendorf model 5415-C bench top centrifuge) for 10 minutes. Clot times were done by either a manual, tilt-tube method or using a Stago ST-4 detector. (Results were equivalent with each method.) For both methods test tubes made of clear polystyrene or similar clear plastic were used.\nReaction cuvettes for the ST4 clot detector were equilibrated to 37° C. (3 minutes) in the appropriate incubation chambers. Calcium equilibration was started by adding 10 μL of 300 mM CaCl2 (final, 30 mM) to 100 μL of the CTI treated citrated PPP (normal, patient or deficient) for 15 seconds followed by 1.3 μL of 3.72 mM PCPS (25:75 PC/PS) (final concentration, 50 μM) 15 seconds. The reaction was initiated by adding 10 μL of 5.0 nM rTF (final 0.5 nM TF) or 2.5 μL of 0.5 nM rTF (12.5 pM final). End point clot times were determined visually or mechanically on the ST4 using the PTT mode, no incubation, with an upper end timing limit of 999 seconds."}, "[3]": {"system": "tissue factor initiated clotting of platelet poor plasma", "assay": "plasma clotting assay using CTI (Example 3)", "type": "biochemical, human", "conditions": "patients on stabilized coumadin therapy", "description": "Blood was drawn directly into sterile buffered 3.8% sodium citrate tubes (Vacutainer brand, product # L10318-00, Becton-Dickinson and Co.), and the tubes were centrifuged at 4227 RCF for 3 minutes (Baxter Stat 60 bench top centrifuge). The supernatant was decanted and an automated PT was established for each patient sample. Platelet poor samples were isolated by further centrifugation for 10 minutes at 14,000 rpm, and the top two-thirds of the plasma was transferred to a Sarstedt rectic cup where it was stored for subsequent analysis at −80° C. Prior to thawing, CTI (stock concentration 1-5 mg/mL) was layered onto the frozen sample in an amount sufficient to give a final concentration of 100 μg CTI/mL plasma. Such citrated plasma containing CTI was used within 0-2 hours (stored at 2-8° C.).\nPlatelet poor plasma collected as described in Example 1 or 2 from either patients or normal donors, was delivered (100 μL) into a 12×75 mm disposable polystryrene tube (VWR Scientific, product #60818-361). Calcium chloride (10 μL, 300 mM CaCl2) was added, followed immediately by an amount of concentrated PSPC (prepared as described above, typical stock concentration ˜1-5 mM in HBS, pH 7.4) so that the final concentration of lipid in the mixture was […]. To initiate the reaction at zero time, 20 μL of stock tissue factor reagent (described below) was added to a final TF concentration of 1 nM. […]"}, "[4]": {"conditions": "factor XI replacement, 25 pM TF"}}}
{"compound": "factor XI: human factor XI used for replacement at 1 U/mL", "values": [{"measurement": "difference in clot time without versus with factor XI", "setting": "[1]; 6 pM TF", "value": 5.7, "unit": "min"}, {"measurement": "difference in clot time without versus with factor XI", "setting": "[1]; 24 pM TF", "value": 0.467, "unit": "min"}, {"measurement": "clot time", "setting": "hemophilia C blood; XI-deficient blood (patient A) with factor XI replacement 1 U/mL, 25 pmol/L TF", "value": 3.7, "unit": "min"}, {"measurement": "phlebotomy control clot time, −TF", "setting": "hemophilia C blood; XI-deficient blood (patient A) with factor XI replacement, CTI, no TF", "value": "(control, −TF > 20.3 min.)"}, {"measurement": "clot time", "setting": "hemophilia C blood; XI-deficient blood (patient B) with factor XI replacement 1 U/mL, 5 pmol/L TF", "value": 9.7, "unit": "min"}, {"measurement": "clotting time with factor XI and corn trypsin inhibitor in the absence of TF", "setting": "hemophilia C blood; factor XI deficient blood", "value": "> 20", "unit": "min"}, {"measurement": "FPA formation rate", "setting": "hemophilia C blood; factor XI replacement, 5 pM TF", "value": 7.4, "unit": "µM/min"}, {"measurement": "TAT rate at clot time", "setting": "hemophilia C blood; factor XI replacement, 5 pM TF", "value": 119, "unit": "nM/min"}, {"measurement": "final level of TAT", "setting": "hemophilia C blood; factor XI replacement, 5 pM TF", "value": 600, "unit": "nM"}, {"measurement": "osteonectin release by clot time", "setting": "hemophilia C blood; factor XI replacement, 5 pM TF", "value": 67, "unit": "%"}, {"measurement": "thrombin generation rate", "setting": "hemophilia C blood; factor XI replacement, 5 pM TF", "value": 119, "unit": "nmol TAT/L/min"}, {"measurement": "time after clot time to complete fibrinogen conversion", "setting": "hemophilia C blood; factor XI replacement, 5 pM TF", "value": "2 to 2.5", "unit": "min"}, {"measurement": "time of maximum factor Va heavy chain", "setting": "hemophilia C blood; factor XI replacement, 5 pM TF", "value": "~12", "unit": "min"}, {"measurement": "final TAT concentration", "setting": "hemophilia C blood; [4]", "value": 950, "unit": "nM"}, {"measurement": "maximum rate of FPA release", "setting": "hemophilia C blood; [4]", "value": 7.3, "unit": "µM/min"}, {"measurement": "rate of thrombin generation", "setting": "hemophilia C blood; [4]", "value": 85, "unit": "nmol·L/min"}, {"measurement": "thrombin generation rate", "setting": "hemophilia C blood; [4]", "value": 85, "unit": "nmol TAT/L/min"}, {"measurement": "shortening of clot time by factor XI replacement", "setting": "hemophilia C blood; hemophilia C blood, 5 pM TF", "value": 6, "unit": "min"}]}
{"compound": "CC(=O)CC(c1ccccc1)c1c(O)c2ccccc2oc1=O", "note": "(stereo not drawn) [Coumadin]", "values": [{"measurement": "clot time of patient plasma", "setting": "[2]; INR of 2, normal 82±6s", "value": "211 ± 8", "unit": "s"}, {"measurement": "clot time of patient plasma", "setting": "[2]; INR of 4.3", "value": "616 ± 9", "unit": "s"}, {"measurement": "XpPT clot time of patient plasma (s.e.m.)", "setting": "[2]; INR of 2.0, normal 82.5±0.63 seconds", "value": "212.6 ± 2.2", "unit": "s"}, {"measurement": "XpPT clot time of patient plasma (s.e.m.)", "setting": "[2]; INR of 4.3", "value": "610.8 ± 4.2", "unit": "s"}, {"measurement": "clot time of patient plasma", "setting": "[3]; INR of 2.0, normal (INR 1) 60-75 seconds", "value": "215 to 240", "unit": "s"}, {"measurement": "clot time of patient plasma", "setting": "[3]; INR of 5.0", "value": "700 to 800", "unit": "s"}]}
